Measured values published in ChEMBL document CHEMBL5579843, “Multimechanism biological profiling of tetrahydro-β-carboline analogues as selective HDAC6 inhibitors for the treatment of Alzheimer's disease” (Eur J Med Chem, 2024).
Active and inactive are the calls of the source. No cut-off for these calls is given here.

Key:
[1] = Neurotoxicity against human SH-SY5Y cells assessed as reduction in cell viability at 10 uM measured after 24 hrs by MTT assay; assay type: toxicity, cell-based
[2] = Neurotoxicity against rat PC-12 cells assessed as reduction in cell viability at 10 uM measured after 24 hrs by MTT assay; assay type: toxicity, cell-based; conditions: pc-12, 24 h
[3] = Neurotoxicity against human SH-SY5Y cells assessed as cell survival rate at 10 uM measured after 24 hrs by MTT assay relative to control; assay type: toxicity, cell-based; conditions: read-out: Survival
[4] = Neurotoxicity against rat PC-12 cells assessed as cell survival rate at 10 uM measured after 24 hrs by MTT assay relative to control; assay type: toxicity, cell-based; conditions: read-out: Survival
[5] = system: SH-SY5Y; test: Neuroprotective activity against H2O2-induced oxidative damage in human SH-SY5Y cells assessed as increase in cell survival at 10 uM pretreated for 4 hrs followed by 200 uM H2O2 stimulation and measured after 24 hrs by MTT assay; assay type: functional, cell-based; conditions: time 28.0 hrs
[6] = Antioxidant activity assessed as ABTS radical scavenging activity measured after 30 mins by absorbance based analysis; assay type: functional
[7] = Antioxidant activity assessed as DPPH scavenging activity incubated for 0.5 hrs by absorbance based assay; assay type: functional
[8] = system: PC-12; test: Neuroprotective activity against H2O2-induced oxidative damage in rat PC-12 cells assessed as increase in cell survival at 10 uM pretreated for 4 hrs followed by 800 uM H2O2 stimulation and measured after 24 hrs by MTT assay; assay type: functional, cell-based; conditions: time 28.0 hrs
[9] = target: T1, Protein deacetylase HDAC6 (Homo sapiens, UniProt Q9UBN7); test: Inhibition of HDAC6 (unknown origin)
T1 sequence (Q9UBN7 whole entry): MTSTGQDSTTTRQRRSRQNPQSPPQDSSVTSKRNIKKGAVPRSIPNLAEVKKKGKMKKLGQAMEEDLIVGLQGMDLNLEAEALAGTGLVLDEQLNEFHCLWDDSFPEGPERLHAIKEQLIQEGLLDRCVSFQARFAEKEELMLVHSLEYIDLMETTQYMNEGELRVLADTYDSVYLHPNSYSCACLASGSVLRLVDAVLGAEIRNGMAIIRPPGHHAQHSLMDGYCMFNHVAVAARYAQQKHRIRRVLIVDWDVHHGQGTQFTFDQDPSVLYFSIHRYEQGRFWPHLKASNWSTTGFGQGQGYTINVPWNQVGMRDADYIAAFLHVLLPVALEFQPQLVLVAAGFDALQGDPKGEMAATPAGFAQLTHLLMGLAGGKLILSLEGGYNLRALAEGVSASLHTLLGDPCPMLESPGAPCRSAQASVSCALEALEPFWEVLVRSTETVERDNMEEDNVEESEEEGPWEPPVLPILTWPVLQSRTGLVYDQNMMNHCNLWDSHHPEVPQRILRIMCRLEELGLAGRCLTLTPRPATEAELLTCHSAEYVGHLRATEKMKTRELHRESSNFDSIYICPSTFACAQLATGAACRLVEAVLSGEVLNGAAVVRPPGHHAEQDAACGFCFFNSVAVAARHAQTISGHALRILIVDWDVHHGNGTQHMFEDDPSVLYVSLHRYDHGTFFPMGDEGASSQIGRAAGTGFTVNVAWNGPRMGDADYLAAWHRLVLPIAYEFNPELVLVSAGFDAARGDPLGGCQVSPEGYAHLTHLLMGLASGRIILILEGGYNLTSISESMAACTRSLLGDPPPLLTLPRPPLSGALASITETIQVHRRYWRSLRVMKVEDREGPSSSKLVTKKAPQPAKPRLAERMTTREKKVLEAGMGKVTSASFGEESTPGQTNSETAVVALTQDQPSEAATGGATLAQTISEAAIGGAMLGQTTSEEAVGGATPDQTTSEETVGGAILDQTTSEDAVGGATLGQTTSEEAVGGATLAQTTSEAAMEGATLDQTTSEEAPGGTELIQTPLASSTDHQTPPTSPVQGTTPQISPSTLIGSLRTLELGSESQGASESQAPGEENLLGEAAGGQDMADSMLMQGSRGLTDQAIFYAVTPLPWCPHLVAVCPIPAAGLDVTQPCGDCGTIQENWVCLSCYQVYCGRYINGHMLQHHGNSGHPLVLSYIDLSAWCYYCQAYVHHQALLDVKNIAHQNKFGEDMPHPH

[10] = target: Histone deacetylase 1 (Homo sapiens, UniProt Q13547); test: Inhibition of HDAC1 (unknown origin)
Chain of Histone deacetylase 1 (Q13547 whole entry): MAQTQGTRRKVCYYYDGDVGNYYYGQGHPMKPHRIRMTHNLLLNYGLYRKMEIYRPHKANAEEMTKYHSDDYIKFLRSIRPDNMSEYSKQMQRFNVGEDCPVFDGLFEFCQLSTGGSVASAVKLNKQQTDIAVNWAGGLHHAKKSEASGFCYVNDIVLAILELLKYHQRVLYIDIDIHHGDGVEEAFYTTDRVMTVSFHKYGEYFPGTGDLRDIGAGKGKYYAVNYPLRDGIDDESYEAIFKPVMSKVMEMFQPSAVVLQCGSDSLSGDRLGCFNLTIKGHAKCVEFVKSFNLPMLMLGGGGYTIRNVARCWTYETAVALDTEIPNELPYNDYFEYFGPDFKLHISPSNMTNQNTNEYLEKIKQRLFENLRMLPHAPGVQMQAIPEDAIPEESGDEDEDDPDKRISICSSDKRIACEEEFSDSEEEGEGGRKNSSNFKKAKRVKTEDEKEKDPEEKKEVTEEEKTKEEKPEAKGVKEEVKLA

[11] = species on record: Danio rerio; test: Cognitive improvement ability in scopolamine induced zebrafish alzheimer disease model assessed as improvement in motor activity by measuring increase in total distance of swimming at 20 mg/L pretreated with scopolamine for 30 mins followed by compound addition for 3 mins by T-maze test; assay type: functional, organism-based
[12] = system: SH-SY5Y; test: Neuroprotective activity against 6-OHDA-induced oxidative damage in human SH-SY5Y cells assessed as increase in cell survival at 1 to 10 uM pretreated for 4 hrs followed by 100 uM 6-OHDA stimulation and measured after 24 hrs by MTT assay; assay type: functional, cell-based; conditions: dose 1-10 µM, time 28.0 hrs
[13] = system: PC-12; test: Neuroprotective activity against H2O2-induced oxidative damage in rat PC-12 cells assessed as SOD activity at 10 uM pretreated for 4 hrs followed by H2O2 stimulation and measured after 24 hrs by WST-8 assay; assay type: functional; conditions: time 28 hrs
[14] = system: PC-12; test: Neuroprotective activity against 6-OHDA-induced oxidative damage in rat PC-12 cells assessed as increase in cell survival at 1 to 10 uM pretreated for 4 hrs followed by 500 uM 6-OHDA stimulation and measured after 24 hrs by MTT assay; assay type: functional, cell-based; conditions: dose 1-10 µM, time 28.0 hrs
[15] = system: SH-SY5Y; test: Neuroprotective activity against H2O2-induced oxidative damage in human SH-SY5Y cells assessed as increase in cell survival pretreated for 4 hrs followed by 200 uM H2O2 stimulation and measured after 24 hrs by MTT assay; assay type: functional, cell-based; conditions: dose 1-10 µM, time 28.0 hrs
[16] = system: PC-12; test: Neuroprotective activity against H2O2-induced oxidative damage in rat PC-12 cells assessed as increase in cell survival pretreated for 4 hrs followed by 800 uM H2O2 stimulation and measured after 24 hrs by MTT assay; assay type: functional, cell-based; conditions: dose 1-10 µM, time 28.0 hrs
[17] = system: PC-12; test: Neuroprotective activity against H2O2-induced oxidative damage in rat PC-12 cells assessed as increase in Nrf2 protein expression at 10 uM pretreated for 4 hrs followed by H2O2 stimulation and measured after 24 hrs by Western blot analysis; assay type: functional, cell-based; conditions: time 28.0 hrs
[18] = system: PC-12; test: Neuroprotective activity against H2O2-induced oxidative damage in rat PC-12 cells assessed as increase in catalase protein expression at 10 uM pretreated for 4 hrs followed by H2O2 stimulation and measured after 24 hrs by Western blot analysis; assay type: functional, cell-based; conditions: time 28.0 hrs

## O=C(CCCCCCC(=O)N1CCc2c([nH]c3ccccc23)C1)NO
[1]
  Activity: Toxic
[2]
  Activity: Toxic

## O=C(CCCCCCC(=O)Nc1ccccc1)NO [VORINOSTAT]
[3]
  viability at 24 h, 10 µM: < 80%
[4]
  viability at 24 h, 10 µM: < 80%

## O=C(/C=C/c1ccc(CN2CCc3[nH]c4ccccc4c3C2)cc1)NO
[1]
  Activity: Toxic
[2]
  Activity: Toxic

## O=C(CCCCCC(=O)N1CCc2c([nH]c3ccccc23)C1)NO
[5]
  Activity: inactive
[6]
  IC50: 14.4 µM
[7]
  IC50: 28.4 µM
[8]
  Activity: inactive

## COc1ccc2[nH]c3c(c2c1)CCN(Cc1ccc(C(=O)NO)cc1)C3
[9]
  IC50: 0.0164 µM
[10]
  IC50: 23.7 µM
[6]
  IC50: 12.6 µM
[7]
  IC50: 29.1 µM

## O=C1O[C@H]([C@@H](O)CO)C(O)=C1O [ASCORBIC ACID]
[6]
  IC50: 25.5 µM
[7]
  IC50: 23.8 µM

## O=C(NO)c1ccc(CN2CCc3[nH]c4ccc(F)cc4c3C2)cc1
[6]
  IC50: 9.96 µM
[7]
  IC50: 21 µM

## O=C(NO)c1cccc(CN2CCc3[nH]c4ccccc4c3C2)c1
[6]
  IC50: 16.9 µM
[7]
  IC50: 24.3 µM

## COc1ccc2c3c1O[C@H]1C[C@@H](O)C=C[C@@]31CCN(C)C2
[11]
  Activity: Active

## O=C(NO)c1ccc(CNC(=O)[C@@H]2Cc3c([nH]c4ccccc34)[C@@H](c3ccc(Cl)cc3)N2CC2CC2)cc1
[10]
  IC50: 0.494 µM

## O=C(NO)c1ccc(CN2CCc3[nH]c4ccccc4c3C2)cc1
[6]
  IC50: 17.2 µM
[7]
  IC50: 26.5 µM

## Cc1ccc2[nH]c3c(c2c1)CN(Cc1ccc(C(=O)NO)cc1)CC3
[6]
  IC50: 9.97 µM
[7]
  IC50: 28.2 µM

## O=C(NO)c1ccc(CN2CCc3c([nH]c4ccccc34)C2)cc1
[9]
  IC50: 0.0138 µM
[10]
  IC50: 16.5 µM
[6]
  IC50: 11.4 µM
[7]
  IC50: 35.6 µM

## CN1CCc2c(c3ccccc3n2Cc2ccc(C(=O)NO)cc2)C1 [TUBASTATIN A]
[12]
  Activity: Active
[13]
  Activity: 13.7 U/mg
[14]
  Activity: Active
[15]
  Activity: Dose-Dependent Effect
[16]
  Activity: Dose-Dependent Effect
[17]
  Activity: Active
[18]
  Activity: Active
[6]
  IC50: 12.1 µM
[7]
  IC50: 28.2 µM

## O=C(NO)c1ccc(C2NCCc3c2[nH]c2ccccc32)cc1 (centres undefined)
[9]
  IC50: > 1 µM

## O=C(NO)c1ccc(C2c3[nH]c4ccccc4c3CCN2Cc2ccccc2)cc1 (centres undefined)
[9]
  IC50: > 1 µM

## COc1ccc2[nH]c3c(c2c1)CCN(Cc1ccc(/C=C/C(=O)NO)cc1)C3
[1]
  Activity: Toxic
[9]
  IC50: 0.0197 µM
[2]
  Activity: Toxic
[10]
  IC50: 0.0108 µM

## O=C(NO)c1ccc(CC(=O)N2CCc3c([nH]c4ccccc34)C2)cc1
[5]
  Activity: inactive
[6]
  IC50: 13.8 µM
[7]
  IC50: 30.3 µM
[8]
  Activity: inactive
